Values of other authors as cited in patent US7247752B2, “Methods for the synthesis of astaxanthin” (Cardax Pharmaceuticals, Inc., priority 2004, dated 2007).

Test system: transformed cells as well as normal prostatic epithelium
Details: alone and/or in combination with other antioxidants (e.g. vitamin E)

## CC(C)=CCC/C(C)=C/C=C/C(C)=C/C=C/C(C)=C/C=C/C=C(C)/C=C/C=C(C)/C=C/C=C(\C)CCC=C(C)C [lycopene]
  growth inhibition of cultured human cells: growth inhibitory
